Source: patent US20030005484A1, “Microbiocidal and pesticidal aromatic aldehydes” (ProGuard, Inc., priority 1994, published 2003)
Several values for one entry are separate records, joined by “and”; a condition that tells them apart may be missing. Identical values can stand only once.

How the values were obtained:
powdery mildew = powdery mildew on roses, disease rating / MPDC after foliar spray; format: in vivo, Sphaerotheca pannosa; conditions: for Mean % Disease Control, rose powdery mildew: no aldehyde: additive alone (T80 10 g, NaHCO3 80 g) or Benomyl per manufacturer instructions, four days
Procedure: Each formulation is evaluated for its effect on specific pests and/or plant host using any of the compounds of formula (1) as well as other components of the formulation such as Tween 80 and/or sodium bicarbonate, with the combination and effective amount of each component adapted for a particular application to minimize toxicity while maintaining or increasing the antipathogenic effect of the formulation. The effective amount of each component may be determined by systematically varying the amount of that component in a test formulation, treating a plant of interest with the test formulation, and monitoring the level of pest infestation compared to an untreated control plant. An effective amount of a test component is identified as the amount that controls the growth of the pathogen on the plant host, thus reducing the disease rating of the plant. The mean percentage disease […] (MPDC) can be calculated for each particular application. MPDC is defined by the formula: [formula] Eight cultivars of rose were tested to investigate the effect of a cinnamic aldehyde/NaHCO3 formulation on rust and spores. The cultivars used included Moss unnamed (Moss), […], Rosette Delize (Hybrid Tea), Rosa Rugosa Rubra (Rugosa), Abel Morrison (Hybrid perpetual), John Laing, Betty Prior, and Rose de Roi. […] The Hybrid Tea and Hybrid perpetual were rated 3 and the Rugosa was rated 1. […] Control plants received no treatment. […] Moreover, the treatment appeared to have induced systemic resistance. […] Plants were an average of 0.86 m apart. […] Controls were untreated plants. […] Weekly reviews were made of the various plants. […] of infected rose in dedicated experimental rose gardens were used. Four Mrs. John Laing (Hybrid perpetual) and two Marchionese of Londonderry (Hybrid perpetual) rose plants were treated with one of two formulations of coniferyl aldehyde. […] The first two Mrs. […] Mrs. […] Both Marchionese of Londonderry plants (P5 and P6) were rated 5 for powdery mildew and rust after Paulus and Nelson (supra). Two treatment formulae were used for this trial. […] Control plants were sprayed with water alone. The change in the rating from pre-treatment to post-treatment was calculated as the mean percentage of disease control (MPDC) as described herein. A three treatment experiment with cinnamic aldehyde formula, coniferyl aldehyde formula and combined cinnamic and coniferyl aldehyde formula was carried out on field grown roses known to be susceptible to powdery mildew. The plants were blocked by variety before fungicide treatments and were randomized as to the plants. Two varieties were used in each of the three experiments described below. […] In experiment 3 Comte de Chambord (Portland) and Madame Pierre Oger (Bourbon) were used. In Experiment 1, the effect of cinnamic aldehyde alone and in combination with Tween 80 and/or NaHCO3 component was evaluated in experiment 2 the effect of coniferyl aldehyde alone and in combination with Tween 80 and/or NaHCO3 was evaluated and in experiment 3 a combination of cinnamic aldehyde and coniferyl aldehyde with Tween 80 and/or NaHCo3 was evaluated. […] See Table 3 for the treatment protocol; formula 1 was used for these experiments. […] Plants were evaluated using the Paulus/Nelson scale just prior to and four days after treatment. […] Moreover, cinnamic aldehyde, coniferyl aldehyde, Tween 80 and NaHCO3 are used in the food industry and there is likely to be little toxicological risk to the consumer or handler from any horticultural or food crop sprayed in this way. Similarly, as these chemicals leave no toxic residue, there is little chance of any detrimental effect on the wider environment, and their use is likely to be compatible with current biological control methods such as beneficial insects and/or microorganisms.

[1] = system: Fusarium subglutinans f. sp. pini; assay: radial growth on amended potato dextrose agar; format: cell-based; conditions: controls: Saponin alone, 5 ppm Benomyl, Glutaraldehyde 2%; five days at 18° C
Procedure: A double-blind bioassay was undertaken using cinnamic aldehyde in various concentrations and formulations. The bioassay was based on inhibition of radial growth of Fusarium subglutinans f. sp. pini. Eight ml of formulation (concentration unknown) was pipetted into 200 ml of molten 2% potato dextrose agar (PDA) and the mixture was dispersed into five plastic petri dishes (25 ml dish). Each of four plates was inoculated at the center with an agar plug transferred from a growing PDA culture of Fusarium subglutinans f. sp. pini (isolate SL-1, UCB), while the fifth plate was left noninoculated as a control. These steps were repeated for each formulation of the cinnamic aldehyde. As a positive control, four PDA plates amended with 5 ppm benomyl were inoculated. as described; the negative control was four unamended PDA plates that were inoculated with F. subglutinans. All inoculated and non-inoculated plates were incubated at 18° C. for five days, after which colony diameters were measured.

grape phylloxera eggs = assay: whole plant or invertebrate; conditions: for nymphs that died in the shell (DIS): controls: Carbofuran 10 ppm, malathion 250 ppm, 7 days; for approximate egg hatch LD 50: egg tests with CNMA analogs
Procedure: Mixed age groups of 60 grape phylloxera eggs were established on filter paper (Whatman #1, 5.5 cm circles) in 50×9 mm sealed plastic petri dishes treated with 100 μl of solution. A selected concentration of a test formulation of 400 μl was added to the filter disk and the dish closed with the petri dish cover and placed in a plastic container box. After 6 hours, the box was placed in an environmental chamber at 24° C. in the dark. The eggs were placed in groups of 10. After one week, the percentage of hatch is determined. In an initial test, doses from 0.1 to 25,000 ppm cinnamic aldehyde in 6% NaHCO3 and 2% Tween 80 were evaluated with a single group of eggs at each dosage. Three replicates of the experiment were performed. […] LD50 and LD95 were determined by probit analysis.
Grape phylloxera eggs were treated with cinnamaldehyde (CNMA) in a 6% NaHCO3, 2% Tween-80 formulation in a laboratory bioassay. Mortality of the eggs was indicated by failure of the egg shell to split. […] Leaves of one-year-old greenhouse Vitis vinifera cultivar Merlot vines heavily infested with grape phylloxera were sprayed to run-off with a CNMA treatment using the same formulation. […] Roots taken from plants 1, 2 and 5 weeks after CNMA or other treatments were placed in Petri dish bioassays and infested with untreated phylloxera eggs.
Eggs of various age classes were placed on Whatman #1 filter paper moistened with enough treatment solution to form a meniscus about halfway up the sides of the eggs. The pieces of filter paper with eggs were maintained in sealed plastic Petri dishes at […] until they were 7 days old and then hatched individuals were counted. Hatch was considered successful if the […]

[2] = system: root-knot nematode, Meloidogyne javanica; format: in vivo; conditions: controls: saponin alone (1:60 dilution of 10 brix concentrate; compared with 100% mortality), Ethanol (95%)
Procedure: In a double blind study, concentrations of the subject aldehyde compounds were tested for activity against root-knot nematode, Meloidogyne javanica. Nematodes were put in direct contact with the chemical and at 24 hour intervals, mortality was assessed both visually and by probing. Meloidogyne javanica were produced using hydroponics. The nematodes were harvested and used within 24 hours.
Approximately 100 nematodes in 0.07 mls of water were pipetted into a syracuse dish (Fisher) and 1 ml of test formulation was immediately pipetted into each dish. The dishes were then placed into plastic bags to retain moisture and prevent evaporation. Four syracuse dishes were used for each solution test formulation. […] Moving nematodes were counted as living.

[3] = system: silverleaf white fly, Bemisia argentifolii; assay: silver leaf white fly Petri dish bioassay; conditions: for Silver Leaf White Fly Mortality (Percent): no aldehyde: T80 (10 g), NaHCO3, T80(2%) + NaHCO3 (6%) or Malathion (250 ppm) alone
Procedure: (§1) Activity of cinnamic aldehyde and/or coniferyl aldehyde against black bean aphid, Tetranychus urticae, and silverleaf white fly, Bemisia argentifolii was determined as follows:
Petri dishes (60 mm) were treated with cinnamic aldehyde at 10-25,000 ppm in 2% Tween 80 and 6% NaHCO3 dissolved in water, and allowed to air dry. Twenty adult silver leaf white fly were put in each dish, (replicate 10 times). The mortality after three hours in contact with a treated plate, was compared to that of silver leaf white fly in petri dishes treated only with diluent. Malathion at 250 ppm was used as a positive control.

phylloxera-biotype A = assay: greenhouse Merlot vines infested with phylloxera, leaf spray, disease rating of roots; format: in vivo, Daktulosphaira vitifoliae; conditions: Experiment 2, 200 ppm Malathion leaf treatment
Source text: For greenhouse tests, one year old potted V. vinifera cultivar merlot plants were used that had been obtained from Foundation Plant Material Service, University of California, Davis. The plants were potted in 10 cm diameter pots and were infested with phylloxera 5 weeks prior to treatment. At the time of spraying with a treatment solution, plant pots were placed in a plastic bag so that chemical runoff from the leaf sprays would not drip into the soil. The plants were sprayed to runoff with a household 1 liter-capacity plastic spray bottle. Plants were allowed to air dry outside and then replaced in the greenhouse. At intervals thereafter, the roots were separated from the potting mix and total phylloxera population estimated.

[4] = system: black bean aphid, Tetranychus urticae; assay: aphid Petri dish bioassay; conditions: malathion 250 ppm, positive control; three hours contact
Procedure: as §1
Petri dishes (60 mm) were treated with cinnamic aldehyde at 10-25,000 ppm in 2% Tween 80 and 6% NaHCO3 dissolved in water, and the dishes allowed to air dry. Twenty adult aphids (Tetranychus urticae) were put in each dish, (replicate 10 times). The mortality after three hours in contact with a treated plate was compared to that of aphids in petri dishes treated only with diluent. Malathion (250 ppm) was used as a positive control.

grape phylloxera = grape phylloxera adult and nymphal mortality, root dip; format: in vivo, Daktulosphaira vitifoliae; conditions: Daktulosphaira vitifoliae, 120 h; positive control 250 ppm malathion in water; root dip; 5 days; read-out: mortality of adults and nymphs
Procedure: Approximately twenty four eggs of phylloxera were allowed to develop for up to 30 days on standard excised grape roots. At around 30 days, some of the insects were nymphs while others were adults. New eggs were removed during the process. Insect infected roots were submerged into a test formula for 6 seconds then set aside to dry in the air. The percentage of live insects, as defined by growth, oviposition or limb movement, was determined after 5 days. An insect was considered dead if it abandoned its feed site.
In an initial test, doses of 20,000 ppm cinnamic aldehyde in water (i.e., 2% cinnamic aldehyde) with various additives were evaluated. Cinnamic aldehyde without any additives produced 83.3% mortality. With-1% Tween 80 added, 91.7% mortality was seen. With 6% NaHCO3 added to a solution of 2% cinnamic aldehyde, 91.7% mortality was seen. With 1% Tween 80 and 6% NaHCO3 added to a solution of 2% cinnamic aldehyde, 100% mortality was seen. Water with no additives produced no mortality, while a positive control solution of 250 ppm malathion in water gave 100% mortality.
For nymph and adult tests, eggs were placed on excised root pieces similar to those used for rearing purposes and these were sealed in Petri dishes and held at 24° C. for 18-25 days to allow insects to hatch, initiate feeding sites and develop. At about this time about half the population was in the adult stage. Prior to testing, the population on each root was determined as well as the developmental stage of each insect. Eggs were removed. These root pieces were then dipped for 5 sec into test solutions and allowed to air dry before they were returned to Petri dishes, sealed and placed back in the temperature chamber at 24° C. Mortality was determined after 5 days. Insects were considered dead if they appeared black or desiccated and if they had not developed since the pre-treatment reading and had laid no or few new eggs.

For `CCCCNC(=O)n1c(NC(=O)OC)nc2ccccc21` [Benomyl, reference compound], the “Mean % Disease Control, rose powdery mildew” value (from here on “Mean % Disease Control”) (powdery mildew) was 79%, the Mean disease control (powdery mildew; sprayed roses, parallel experiments) was “approximately 80%” and the “Colony diameter (cm)” value [1] was 0.000 cm and 0 cm.
In the case of `CNC(=O)Oc1cccc2c1OC(C)(C)C2` [Carbofuran, reference compound], the “nymphs that died in the shell (DIS)” value (grape phylloxera eggs) is reported as 100%.
With `COC(=O)C=Cc1ccccc1` [Cinnamyl acid methyl ester] the “approximate egg hatch LD 50” value (grape phylloxera eggs) was > 320 ppm and < 560 ppm.
`OCC=Cc1ccccc1` [Cinnamyl alcohol] was tested, and the “approximate egg hatch LD 50” value (grape phylloxera eggs) was > 320 ppm and < 560 ppm.
In the case of `CCO` [Ethanol, reference compound], the “mortality at 24 hours” value [2] is reported as “killed all nematodes”.
For `O=CCCCC=O` [Glutaraldehyde, reference compound], the “Colony diameter (cm)” value [1] was 3.663 cm and 3.66 cm.
With `O=C([O-])O.[Na+]` [NaHCO3] the “Mean % Disease Control” value (powdery mildew) was 44% and the “Silver Leaf White Fly Mortality (Percent)” value [3] was 22.9%.
With `CCCCCCCC/C=C\CCCCCCCC(=O)OCCOCC(OCCO)C1OCC(OCCO)C1OCCO` (stereo not shown) [T80, Tween 80] the “Mean % Disease Control” value (powdery mildew) was 0% and the “Silver Leaf White Fly Mortality (Percent)” value [3] was 14.5%.
In the case of `CCOC(=O)CC(SP(=S)(OC)OC)C(=O)OCC` (stereo not shown) [malathion, reference compound], the “Average disease rating (0-4)” value (phylloxera-biotype A; 1 day post treatment) is reported as 4 (3), the “Average disease rating (0-4)” value (phylloxera-biotype A; 2 days post treatment) is reported as 2.3(3) and the “Average disease rating (0-4)” value (phylloxera-biotype A; 7 days post treatment) is reported as 0(2). The “silver leaf white fly killed” value ([3]; malathion 250 ppm, positive control, three hours contact) was 100%, the aphids killed [4] was 100% and the “nymphs that died in the shell (DIS)” value (grape phylloxera eggs) was 100%. The mortality at 250 ppm (grape phylloxera) was 100%.
